For one assay, the target named is T1, P2Y6 receptor (Homo sapiens, UniProt Q15077).
T1 construct: expressed in transfected cells; host or cells: 1321N1 human astrocytoma cells
In words: Activation of P2Y6 receptor: receptor-induced Ca2+ changes with fluo-4. The format is cell-based. The protocol: Synthetic ligands were tested for activation of P2Y6 receptor by measuring receptor induced Ca^2+ changes with the fluorescent Ca^2+ indicator fluo-4. 1321N1 human astrocytoma cell lines either expressing P2Y2, P2Y4 or P2Y6 receptors were plated into 24-well plates. Two days after plating, fluorometric measurements were made and responses of cells to a serial dilution of ligands were determined. P2Y6 receptor mediated Ca^2+ fluorescent change was determined by normalized accumulation of fluorescent change of 3 timepoints after ligand administration subtracted by value from ACSF control. Changes in fluorescent intensity were plotted corresponding to ligand concention in GraphPad. Dose-response curve and EC50 for each ligand was estimated using nonlinear curve fit and Sigmoidal dose-response analysis. […]
Synthetic ligands were tested for activation of P2Y6 receptor by measuring receptor induced Ca^2+ changes with the fluorescent Ca^2+ indicator fluo-4, and results are shown in FIG. 10(A)-(K). […] Two days after plating, fluorometric measurements were made and responses of cells to a serial dilution of ligands were determined. P2Y6 receptor mediated Ca^2+ fluorescent change was determined by normalized accumulation of fluorescent change of 3 timepoints after ligand administration subtracted by value from ACSF control. […]

Assay [1] concerns PSAPP mice. In words: Contextual fear conditioning test (freezing %). The format is in vivo. The protocol:
On day one, animals were trained in a fear conditioning apparatus for a total of 7 minutes with a two-pairing paradigm of cue and mild foot shock (a 30-s acoustic-conditioned stimulus, 80 dB; a 2-s shock stimulus, 0.5 mA). To evaluate contextual fear learning, the animals were returned to the training context 24 hours post-training, and freezing behavior was scored for 5 minutes. Freezing behavior was monitored by MotorMonitor (Hamilton Kinder) and scored every 5 seconds.
This represents a decrease in the cognitive impairment observed in the untreated mice.

Assay [2] deals with PSAPP mice. In words: Postmortem immunohistochemistry of amyloid beta plaque load in cortex and hippocampus. The format is in vivo. The protocol: Mice were perfused transcardially with 4% paraformaldehyde and 40 μm Coronal sections were collected. Sections were sequentially incubated in 0.3% H2O2 for 10 minutes, blocking solution for 2 hrs, blocking solution containing the primary antibody (rabbit anti-beta1-42; rabbit anti-beta1-40, from Chemicon International and rat anti-CD45) for 48 hours at 4° C., and blocking solution containing biotinylated antibody or fluorescently-labeled antibody for 2 hours at room temperature. Sections were visualized in a bright field microscope or a confocal microscope, and the optical density was obtained using MetaMorph software.
To generate these graphs showing plaque load, mice were euthanized, brain sections cut and antibodies directed against Aβ 42 were used to disclose Aβ plaques. Images were acquired digitally and an algorithm was applied to threshold the image so that plaques were isolated from the background. The algorithm then calculated the percent area of the field of view occupied by the plaques.
Brain samples were collected for Abeta analysis with immunostaining. Brains samples were collected after transcardial perfusion with phosphate buffer and 4% paraformaldehyde. Floating brain sections (40 micron) were collected using a microtome. Immunostaining for Aβ40 and Aβ42 were performed according to previously established protocol. Images with DAB staining were collected with brightfield microscopy and analyzed with ImageJ Macro. All data analysis and statistics were performed in GraphPad Prism 6.0.

A further assay concerns human THP-1 cells. In words: Cytokine release from THP-1 cells into culture medium (multiplex cytokine analysis). It counts as cell-based. The method, then:
THP-1 cells, a human cell line derived from monocytes, were treated in vitro with vehicle, the P2Y6 receptor antagonist MRS 2578, or compound 5, singly or in combination. THP-1 cells were seeded in 24 well plates at a density of 4×10^5 cells/well in culture medium for 24 hours. Thereafter, vehicle, compound 5, or MRS 2578 (singly or in combination) were added to the cultures for 24 hours. Subsequently the culture medium was aspirated and subjected to multiplex cytokine analysis. Data are presented as means+/−sem. MRS 2578 has a molecular weight of about 472 and is also described using CAS number 711019-86-2.

Assay [3] relates to PSAPP mice. In words: Hippocampal long-term potentiation (LTP) recording, CA1. The format is in vivo. The method, then:
Hippocampal slices (350 μm thick) were prepared from 6-month-old PSAPP mice. Baseline responses were obtained every 10 seconds and Input-output (I/O) curves, paired-pulse modification and LTP were successively measured. The stimulation intensity was set to a level that gives a value of 30% of the maximum obtained. LTP were induced by high frequency stimulation (HFS, 100 pulses at 100 Hz, four times) or by theta-burst stimulation (TBS, 10 bursts at 5 Hz, repeated 10 times in 15 s intervals).
Accumulated evidence has shown that amyloid peptides naturally secreted or isolated from Alzheimer's brains impair synaptic plasticity, especially hippocampal long-term potentiation (Walsh et al., 2002). Therefore, we further performed LTP recordings in PASPP mice and investigated whether P2Y6 receptor-mediated plaque clearance affects synaptic plasticity. […] First, it was observed that LTP at the schaffer collateral synapse within the CA1 region was depressed in PSAPP mice, as compared with littermates (FIG. 8(A)).

Assay [4] deals with PSAPP mice. In words: Two-photon in vivo imaging of methoxyX04-labeled amyloid plaques in barrel cortex. The following applies: UDP vs ACSF. The text has this: In this study, PSAPP mice were anesthetized using isoflurane and a thin-skull preparation was used to minimize the surface damage. Amyloid plaques were visualized with methoxyX04 labeling and blood plasma was labeled with Rhodamine dextran to facilitate re-localization of the same imaging area. Stack images were obtained using a two-photon system (Prairie Technologies) with excitation at 850 nm. The emission was detected by external photomultiplier tubes (525/70; DLCP 575; 607/45 nm).
Animals were anesthetized and immobilized in a stereotaxic frame. For each injection, 1 μl of 10 mM UDP or other suitable compounds in artificial cerebrospinal fluid (ACSF) as the vehicle were injected intraventricularly using the following coordinates: AP 0.2 mm, ML 1 mm, and DV 2.2 mm.
To evaluate the effect of UDP on plaque burden, two-photon microscopy was used to assess the amyloid plaques in the barrel cortex in living PSAPP mice. Amyloid plaques were stained by systemically administered methoxy-X04. One day prior to imaging, PSAPP mice were injected with methoxyX04 to label the amyloid plaques. On the imaging day, to facilitate the re-location of the same imaging area, blood plasma was labeled with Rhodamine dextran. Images were obtained from the same start- and end-point to ensure the same image volume. […]

Entries after “also recorded” stand apart in the source; their conditions may differ.

T1 sequence (Q15077 whole entry): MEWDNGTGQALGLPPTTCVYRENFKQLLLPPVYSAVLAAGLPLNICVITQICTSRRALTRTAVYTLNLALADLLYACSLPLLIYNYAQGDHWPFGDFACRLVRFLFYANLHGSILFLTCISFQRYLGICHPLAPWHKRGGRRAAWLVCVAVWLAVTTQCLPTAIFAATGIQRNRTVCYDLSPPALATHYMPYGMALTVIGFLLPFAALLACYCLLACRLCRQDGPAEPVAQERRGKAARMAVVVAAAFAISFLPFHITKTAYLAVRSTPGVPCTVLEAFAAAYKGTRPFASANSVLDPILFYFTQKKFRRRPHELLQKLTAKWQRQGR

For the compound `O=c1ccn([C@@H]2O[C@H](COP(=O)(O)OP(=O)(O)O)[C@@H](O)[C@H]2O)c(=O)n1Cc1noc2ccccc12`, at P2Y6 receptor (1321N1 human astrocytoma cells expressing P2Y6), the “elevating Ca2+ levels in cells expressing P2Y6 receptors” value is “only effective”.
`O=C(Cn1c(=O)ccn([C@@H]2O[C@H](COP(=O)(O)OP(=O)(O)O)[C@@H](O)[C@H]2O)c1=O)c1ccccc1` [3-phenacyl-UDP, reference compound]: the “total freezing percentage in context test” value in the assay with PSAPP mice [1] (chronic injection, two different doses) is recorded as “increased”. Besides, the “memory deficit (contextual fear conditioning) compared to vehicle” value in the assay with PSAPP mice [1] (one week treatment with 1 μg/kg, FIG. 9C) is on record as “rescued the memory deficit”. The “effects on the efficacy endpoint at the higher dose” value in the assay with PSAPP mice [2] (1 mg/kg, one week of daily treatment) is listed as “smaller effects”. In addition, the “β1-40 staining after treatment stopped” value in the assay on PSAPP mice [2] (6 consecutive days i.p. then stopped for 2 weeks (6+2 weeks group), level still lower than saline vehicle) is “rebounded”. For the same compound, the “immunoreactivity of β1-40 in cortex” value in the assay on PSAPP mice [2] (i.p. for 4 and 6 consecutive days, FIG. 6A) was “significantly decreased”. Moreover, the “immunoreactivity of β1-40 in hippocampus” value in the assay on PSAPP mice [2] (i.p. for 4 and 6 consecutive days, FIG. 6B) is listed as “significantly decreased”.
For `S=C=Nc1cccc(NC(=S)NCCCCNC(=S)Nc2cccc(N=C=S)c2)c1` [MRS 2578], at P2Y6 receptor (P2Y6 receptor expressing 1321N1 cells), the “effect of antagonist on Ca2+ signals elevated by the sodium salt of the diphosphate derivative of compound 5” value was “attenuated”. Besides, in the assay with human THP-1 cells (24 hours treatment vs vehicle, FIG. 25), the “release of fractalkine, PDGF-BB, and IL-7 (concentration in culture medium)” value is on record as “increased”. For the same compound, the “release of IL-7 from human THP-1 cells” value with human THP-1 cells (MRS 2578 alone, 24 hours, FIG. 26) is on record as “increased”. For the same compound, the “effect of co-treatment on the decrease of IL-7/cytokine release caused by compound 5” value in the assay with human THP-1 cells (compound 5 plus MRS 2578, FIG. 26) is listed as “blocked; also recorded: abrogated”.
Turning to `O=c1ccn([C@@H]2O[C@H](COP(=O)(O)OP(=O)(O)O)[C@@H](O)[C@H]2O)c(=O)[nH]1` [UDP, uridine diphosphate], in the assay on PSAPP mice [3] (acute UDP vs ACSF, HFS, FIG. 8B), the “LTP deficit at schaffer collateral synapse, CA1” value is reported as “reversed”. Moreover, the “field excitatory postsynaptic potential (fEPSP), last 15 min potentiation” value in the assay on PSAPP mice [3] (acute UDP, comparable to littermates, FIG. 8C) is “significant increase”. Moreover, the “freezing behavior compared to ACSF treatment” value in the assay with PSAPP mice [1] (UDP-treatment 3 days prior to the test, FIG. 7C) is on record as “significantly improved”. The “decrease in plaque load in the cortex, β1-42 antibody” value with PSAPP mice [2] (acute UDP i.c.v., P<0.01) came to 48%. Also, the “decrease in plaque load in the hippocampus, β1-42 antibody” value in the assay with PSAPP mice [2] (acute UDP i.c.v., P<0.05) was 47%. Besides, the “decrease in plaque load in the hippocampus, β1-40 antibody” value in the assay with PSAPP mice [2] (acute UDP i.c.v., p<0.01) came out at 62%. In addition, in the assay with PSAPP mice [2] (acute UDP i.c.v., p<0.05), the “decrease in plaque load in the cortex, β1-40 antibody” value is reported as 60%. Moreover, the “day 4/day 1 ratios of plaque load” value with PSAPP mice [4] (FIG. 2D) is reported as “significant reductions”. For the same compound, in the assay on PSAPP mice [4] (FIG. 2E), the “number of plaques (day 4/day 1 ratios)” value is “significant reductions”.

The record behind these values is patent US11124536B2, “Uridine nucleoside derivatives, compositions and methods of use” (Tufts University, priority 2013, dated 2021).
